The target of experiment [1] is Human immunodeficiency virus type 1 reverse transcriptase (Human immunodeficiency virus 1, UniProt Q72547). The experiment can be described thus: Inhibitory activity against HIV-1 reverse transcriptase.
The test system of another experiment is Nucleic Acid. As to the kind of experiment: Inhibitory activity against RNA. It counts as functional.

Structures are written as SMILES.

In experiment [1], `O=C1Nc2cc(O)c(Cl)cc2C(C#CC2CC2)(C(F)(F)F)O1` (stereo not drawn) gave an IC50 of 2450 nM. It took 422 nM to reach the 90% level with Nucleic Acid (IC90).
The corresponding values for `O=C1Nc2ccc(Cl)cc2C(C#CC2(O)CC2)(C(F)(F)F)O1` (stereo not drawn) are 1980 nM and 33 nM.
On to `O=C1Nc2ccc(Cl)cc2[C@@](C#CC2CC2)(C(F)(F)F)O1`, for which the IC90 in the experiment with Nucleic Acid was 1.7 nM.
For the molecule `O=C1Nc2c(O[C@@H]3O[C@H](C(=O)O)[C@@H](O)[C@H](O)[C@H]3O)cc(Cl)cc2[C@@](C#CC2CC2)(C(F)(F)F)O1`, the IC50 in experiment [1] stood at 9490 nM. Moreover, the IC90 with Nucleic Acid is above 985 nM.
The corresponding values for `O=C1Nc2c(O)cc(Cl)cc2[C@@](C#CC2CC2)(C(F)(F)F)O1` are 2340 nM and 63 nM.
The corresponding values for `O=C1Nc2c(OS(=O)(=O)O)cc(Cl)cc2[C@@](C#CC2CC2)(C(F)(F)F)O1.c1ccncc1` are 12500 nM and 1010 nM.
In experiment [1], `O=C1Nc2c(O)cc(Cl)cc2C(C#CC2CC2)(C(F)(F)F)O1` (single isomer, unassigned) displayed an IC50 above 12500 nM. This molecule showed an IC90 in the experiment with Nucleic Acid above 1510 nM.

(Values after ChEMBL document CHEMBL1134210, “Synthesis and biological activities of potential metabolites of the non-nucleoside reverse transcriptase inhibitor efavirenz” (Bioorg Med Chem Lett, 2001).)
